Results on 6 molecules are retold here after US11851410B2, “Sensors for detection of negatively charged phosphate-containing membranes and membrane components” (THE GOVERNING COUNCIL OF THE UNIVERSITY OF TORONTO, priority 2017, dated 2023).

The conditions of series [1]: cited from earlier work.
In series [2] the test system is POPE (PE) zwitterionic vesicles. Briefly: Serial dilution vesicle fluorescence intensity experiments, PE vesicles. The conditions noted are these: sensor 25 μM (PSVue™380 1 μM), 50 mM HEPES, 5% DMSO, pH 7.5. In kind it is binding. An excerpt:
(§1) The following equations were used for the calculations: […]

Series [3] relates to DOPS (PS) negatively charged vesicles. Briefly: Serial dilution vesicle fluorescence intensity experiments, PS vesicles. In kind it is binding. The arrangement: ΔΔFI: unit not given here. The conditions noted are these: sensor 25 μM (PSVue™380 1 μM), 50 mM HEPES, 5% DMSO, pH 7.5.
Series [4] has the same test system. The series is described as above. The arrangement: ΔΔFI: unit not given here. Type of series: binding. Conditions: sensor 25 μM (PSVue™380 1 μM), 50 mM HEPES, 5% DMSO, pH 7.5.
From the text: as §1
It is estimated that a mammalian cell membrane is composed of 10% PS, with the majority located on the inner leaflet in the healthy state. However, during the early stages of apoptosis, this asymmetry is lost and PS becomes symmetrically distributed resulting in ˜5% of PS externalized to the outer leaflet. To address if compounds of this application could potentially be used for the detection of the PS externalization event during apoptosis, the exemplary sensors were screened against PC vesicles containing biologically-relevant levels of PS ([…]; assuming that approximately half of the lipid head groups will be exposed to the interior of the vesicle). The resulting ΔΔFI for vesicle concentrations up to 40 μM are presented in FIG. 7 and Table 1 (ΔΔFI for vesicle concentrations up to 200 μM is presented in FIG. 4).
The source holds these as a separate data set.

For series [5], the system named is POPG (PG) negatively charged vesicles. Briefly: Serial dilution vesicle fluorescence intensity experiments, PG vesicles. Type of series: binding. The conditions noted are these: sensor 25 μM (PSVue™380 1 μM), 50 mM HEPES, 5% DMSO, pH 7.5.
From the text: as §1

The test system of series [6] is TOCL (CL) negatively charged vesicles. In words: Serial dilution vesicle fluorescence intensity experiments, CL vesicles. Type of series: binding. Details: ΔΔFI: unit not given here. The conditions noted are these: sensor 25 μM (PSVue™380 1 μM), 50 mM HEPES, 5% DMSO, pH 7.5.
From the text: as §1

The subject of series [7] is POPA (PA) negatively charged vesicles. In words: Serial dilution vesicle fluorescence intensity experiments, PA vesicles. In kind it is binding. The conditions noted are these: PA vesicles, sensor 25 μM (PSVue™380 1 μM), 50 mM HEPES, 5% DMSO, pH 7.5.
From the text: as §1

A further series relates to PA vesicles. In words: Zinc metalation fluorescence experiments. In kind it is binding. The conditions noted are these: for FIexc response to increasing PA vesicle concentrations, unmetallated: acid-treated glassware, chelex-treated buffers, non-normalized FIexc; for ability to detect PA vesicles in the absence of Zn^2+ (ΔFI): unmetallated sensors, PA vesicles 0-200 μM. The procedure:
Vesicle fluorescence intensity experiments were performed in the absence or presence of zinc(II) (trifluoromethanesulfonate salt). Unmetallated PSVue™380 (PSVue™380*) was also included for reference.
All glassware was treated with 0.1 M HCl overnight, rinsed three times with MilliQ water, and oven dried. […] The sensor-zinc solutions were then combined with PA vesicles, prepared as described above, incubated as described above and the fluorescence emission intensity was then measured as described above.
In an effort to eliminate this possibility, all glassware was acid-treated and all buffers were chelex-treated to remove any metals, and the screens were repeated with PA vesicles. For these experiments, original non-normalized FIexc values were analyzed.

In series [8] the test system is WT and mutant E. coli strains. In words: Bacteria mutant strain knockout fluorimetry, E. coli. The conditions noted are these: for effect of LPS kinase knockouts on fluorescence fold: E. coli ΔWaaP, ΔwaaG; for effect of cardiolipin synthase knockouts on fluorescence fold: E. coli ΔclsA, ΔclsB, ΔclsC. Type of series: cell-based. An excerpt:
Fluorescence intensities were used to calculate the excimer emission in response to bacterial strains. Measurements were averaged over two triplicates.

The mark [9] stands for this setting: 75% PS vesicles, 20 μM vesicles.
[10] abbreviates: PS vesicles (50%), 5 μM vesicles.
The mark [11] stands for this setting: PS vesicles (50%), 20 μM vesicles.
The mark [12] stands for this setting: 25% PS vesicles, 20 μM vesicles.
Where [13] appears, read: 33% CL vesicles, 20 μM vesicles.
Setting [14] is: CL vesicles (50%), 5 μM vesicles.
The mark [15] stands for this setting: CL vesicles (50%), 20 μM vesicles.

On to `c1ccc(CNCc2ccccn2)nc1` [DPA], for which, in series [1], the “pKa” value is reported as 2.60, the “pKa (first given)” value is 7.30 and the “pKa (third printed)” value is on record as 1.12.
For `c1cc2ccc3ccc(CCCCN4CCNCCNCCNCC4)c4ccc(c1)c2c34` [I-2], the ΔΔFI in series [2] (5 μM vesicles) is 1.1; in [2] (20 μM vesicles), 1.6; in [3] (75% PS vesicles, 5 μM vesicles) it was 4.2; in [3] (setting [9]), 11.7; in series [3] (setting [10]), 2.8; in series [3] (setting [11]) it was 7.6. For the same molecule, the ΔΔFI in [4] (5% PS vesicles, 5 μM vesicles) turned out to be 1.6; in series [4] (5% PS vesicles, 20 μM vesicles), 3.1; in series [4] (25% PS vesicles, 5 μM vesicles), 1.8; in [4] (setting [12]) it was 4.3; in series [5] (5 μM vesicles) it was 2.5; in [5] (20 μM vesicles), 5.5. The ΔΔFI in series [6] (33% CL vesicles, 5 μM vesicles) is recorded as 3; in [6] (setting [13]) it was 7.2; in series [6] (setting [14]), 4.4; in [6] (setting [15]), 12; in series [7] (5 μM vesicles), 4.3; in series [7] (20 μM vesicles), 12.3.
Take `c1ccc(CN(CCCCc2ccc3ccc4cccc5ccc2c3c45)Cc2ccccn2)nc1` [I-6]: the ΔΔFI in series [2] (5 μM vesicles) is reported as 1; in series [2] (20 μM vesicles) it was 1; in series [3] (75% PS vesicles, 5 μM vesicles), 4.5; in series [3] (setting [9]), 7.5; in [3] (setting [10]) it was 2.9; in series [3] (setting [11]), 4.8. Also, the ΔΔFI turned out to be 1.6 in [4] (5% PS vesicles, 5 μM vesicles); 2.4 in [4] (5% PS vesicles, 20 μM vesicles); 2.1 in series [4] (25% PS vesicles, 5 μM vesicles); 3 in series [4] (setting [12]); 1.8 in series [5] (5 μM vesicles); 2.7 in series [5] (20 μM vesicles). Further, the ΔΔFI in [6] (33% CL vesicles, 5 μM vesicles) is reported as 1.9; in series [6] (setting [13]) it was 3.1; in series [6] (setting [14]), 2.7; in [6] (setting [15]) it was 4.3; in series [7] (5 μM vesicles), 4.4; in [7] (20 μM vesicles) it was 6.9.
In the case of `c1cc2ccc3ccc(CN4CCNCCNCCNCC4)c4ccc(c1)c2c34` [II-1, 1-(pyren-1-ylmethyl)-1,4,7,10-tetraazacyclododecane], the “ΔFI of unmetallated sensor versus metallated counterpart” value in the series with PA vesicles (PA vesicles) was “outperformed its metallated counterpart”. In addition, in the series on PA vesicles, the “FIexc response to increasing PA vesicle concentrations, unmetallated” value is reported as “comparable responses” and the “ability to detect PA vesicles in the absence of Zn^2+ (ΔFI)” value is given as “retained their ability to detect PA”.
In the case of `c1cc2ccc3ccc(CN4CCCNCCNCCCNCC4)c4ccc(c1)c2c34` [II-3, 1-(pyren-1-ylmethyl)-1,4,8,11-tetraazacyclotetradecane], in [8], the “effect of LPS kinase knockouts on fluorescence fold” value is on record as “little to no change” and the “effect of cardiolipin synthase knockouts on fluorescence fold” value is “greatest effect”.
As to `c1ccc(CN(Cc2ccccn2)Cc2ccc3ccc4cccc5ccc2c3c45)nc1` [II-5, 1-(pyren-1-yl)-N, N-bis(pyridin-2-ylmethyl)methanamine], in the series on PA vesicles, the “FIexc response to increasing PA vesicle concentrations, unmetallated” value is listed as “did not respond” and the “ability to detect PA vesicles in the absence of Zn^2+ (ΔFI)” value is reported as “lost their ability to sense PA”. Moreover, in series [8], the “effect of LPS kinase knockouts on fluorescence fold” value is “little to no change” and the “effect of cardiolipin synthase knockouts on fluorescence fold” value is recorded as “greatest effect”.

Usually pKa stands for the pH at which an ionisable group is half protonated.
